Data on eleven molecules can be found in ChEMBL document CHEMBL1201862, “PubChem BioAssay data set” (2004).

For test [1], the target named is T1, Protein RecA (Mycobacterium tuberculosis, UniProt P9WHJ3).
T1 sequence (P9WHJ3 whole entry): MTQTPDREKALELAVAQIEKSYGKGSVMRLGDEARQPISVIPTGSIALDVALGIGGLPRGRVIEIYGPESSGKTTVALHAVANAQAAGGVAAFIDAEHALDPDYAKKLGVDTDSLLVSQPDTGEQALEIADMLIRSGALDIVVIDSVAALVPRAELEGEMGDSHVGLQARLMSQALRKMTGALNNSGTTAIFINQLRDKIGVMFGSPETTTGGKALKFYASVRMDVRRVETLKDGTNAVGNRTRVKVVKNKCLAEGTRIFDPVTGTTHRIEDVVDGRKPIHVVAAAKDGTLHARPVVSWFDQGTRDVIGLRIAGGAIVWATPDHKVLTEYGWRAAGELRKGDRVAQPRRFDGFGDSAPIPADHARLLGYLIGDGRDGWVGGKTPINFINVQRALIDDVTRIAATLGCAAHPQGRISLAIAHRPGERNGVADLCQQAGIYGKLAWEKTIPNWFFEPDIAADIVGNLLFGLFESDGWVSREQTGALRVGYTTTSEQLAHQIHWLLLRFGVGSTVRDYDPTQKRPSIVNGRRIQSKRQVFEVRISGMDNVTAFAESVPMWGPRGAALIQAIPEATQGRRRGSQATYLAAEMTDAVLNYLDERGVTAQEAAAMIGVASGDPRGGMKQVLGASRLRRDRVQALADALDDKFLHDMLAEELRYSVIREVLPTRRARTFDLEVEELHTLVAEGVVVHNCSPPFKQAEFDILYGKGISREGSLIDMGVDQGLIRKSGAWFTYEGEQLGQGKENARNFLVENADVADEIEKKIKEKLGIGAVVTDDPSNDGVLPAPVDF
The experiment in a line: Fluorescence Cell-Free Homogeneous Dose Retest to Identify Inhibitors of RecA-Intein Splicing Activity. [Related pubchem assays (depositor defined):AID2097, AID2223, AID489010, AID492950]. Format: functional.

Test [2] deals with T2, Corticotropin-releasing factor receptor 2/Corticotropin-releasing factor-binding protein (Homo sapiens, UniProt P24387+Q13324).
T2 sequence (Q13324 whole entry): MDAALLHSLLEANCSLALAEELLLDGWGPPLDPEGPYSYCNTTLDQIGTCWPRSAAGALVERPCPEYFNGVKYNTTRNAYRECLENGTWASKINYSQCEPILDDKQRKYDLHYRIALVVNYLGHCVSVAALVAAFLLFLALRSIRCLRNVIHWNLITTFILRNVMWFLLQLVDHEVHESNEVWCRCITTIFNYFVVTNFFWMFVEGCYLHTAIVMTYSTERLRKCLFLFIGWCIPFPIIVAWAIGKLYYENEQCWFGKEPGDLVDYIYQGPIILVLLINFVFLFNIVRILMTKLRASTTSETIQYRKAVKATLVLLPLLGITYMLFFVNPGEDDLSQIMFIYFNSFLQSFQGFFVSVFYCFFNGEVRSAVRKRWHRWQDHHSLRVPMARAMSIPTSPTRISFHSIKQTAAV
T2 sequence (P24387 whole entry): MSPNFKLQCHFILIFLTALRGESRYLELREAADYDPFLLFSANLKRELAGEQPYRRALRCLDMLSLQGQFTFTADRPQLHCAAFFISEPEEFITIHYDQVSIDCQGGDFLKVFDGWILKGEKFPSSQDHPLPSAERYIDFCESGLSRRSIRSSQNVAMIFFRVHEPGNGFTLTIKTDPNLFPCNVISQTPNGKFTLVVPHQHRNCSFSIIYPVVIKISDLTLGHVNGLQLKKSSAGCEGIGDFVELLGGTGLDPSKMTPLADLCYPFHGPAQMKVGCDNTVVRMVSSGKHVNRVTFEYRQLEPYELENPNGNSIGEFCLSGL
Description: Dose Response confirmation of uHTS hits for small molecule antagonists of the CRF-binding protein and CRF-R2 receptor complex. Format: functional. As to conditions: read-out: IC50_Mean.

The subject of test [3] is HEK293. Description: cells. As to conditions: Homo sapiens.
A short description of test [4]: microbe, parasite or virus in culture. Type of test: functional. As to conditions: Mycobacterium tuberculosis.
The subject of test [5] is HEK293. The experiment in a line: cells. As to conditions: Homo sapiens. The source holds these as a separate data set.
Test [6] concerns the target T2, Corticotropin-releasing factor receptor 2/Corticotropin-releasing factor-binding protein. The experiment in a line: activators of CRF receptor 2 with binding protein – uHTS hits, confirmation (AID 602473). The conditions noted are these: read-out: EC50_Mean. Type of test: functional.
Test [7] concerns the target T3, Replicative DNA helicase DnaB (Mycobacterium tuberculosis, UniProt P9WMR3).
T3 sequence (P9WMR3 whole entry): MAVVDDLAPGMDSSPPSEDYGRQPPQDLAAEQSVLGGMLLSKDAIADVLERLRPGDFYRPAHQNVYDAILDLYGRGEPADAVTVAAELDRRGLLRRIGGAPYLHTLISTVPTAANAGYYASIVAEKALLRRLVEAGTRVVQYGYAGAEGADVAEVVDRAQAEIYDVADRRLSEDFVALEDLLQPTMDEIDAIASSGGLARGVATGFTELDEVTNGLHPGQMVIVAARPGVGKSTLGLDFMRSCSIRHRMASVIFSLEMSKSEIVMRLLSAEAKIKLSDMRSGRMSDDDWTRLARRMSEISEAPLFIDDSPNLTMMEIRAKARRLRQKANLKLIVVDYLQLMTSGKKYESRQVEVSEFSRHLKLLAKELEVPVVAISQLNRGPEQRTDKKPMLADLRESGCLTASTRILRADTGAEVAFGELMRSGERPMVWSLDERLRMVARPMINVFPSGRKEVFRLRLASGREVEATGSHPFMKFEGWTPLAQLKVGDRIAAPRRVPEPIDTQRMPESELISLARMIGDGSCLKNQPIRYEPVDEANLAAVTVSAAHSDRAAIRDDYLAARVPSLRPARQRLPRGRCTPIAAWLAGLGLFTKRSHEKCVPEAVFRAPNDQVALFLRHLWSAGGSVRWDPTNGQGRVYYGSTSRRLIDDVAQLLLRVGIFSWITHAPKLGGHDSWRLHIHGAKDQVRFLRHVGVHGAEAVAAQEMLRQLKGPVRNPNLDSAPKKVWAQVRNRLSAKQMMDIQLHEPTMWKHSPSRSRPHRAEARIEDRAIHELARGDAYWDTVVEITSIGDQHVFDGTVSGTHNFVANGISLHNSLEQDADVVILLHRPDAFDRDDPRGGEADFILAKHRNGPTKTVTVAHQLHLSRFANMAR
The experiment in a line: DnaB intein splicing inhibitors, dose response, biochemical, cell-free fluorescence (AID 449749). Format: functional.

Test [8] deals with Vero. Description: cells. Format: functional, cell-based. The conditions noted are these: Chlorocebus sabaeus.
Test [9] deals with Glucose-6-phosphate 1-dehydrogenase (Homo sapiens, UniProt P11413). Description: inhibition of Homo sapiens G6PD, dose series – biochemical, fluorescence, selectivity assay for P. falciparum G6PD inhibitor project, dose response (AID 504792). Format: functional.
Sequence of Glucose-6-phosphate 1-dehydrogenase (P11413 whole entry): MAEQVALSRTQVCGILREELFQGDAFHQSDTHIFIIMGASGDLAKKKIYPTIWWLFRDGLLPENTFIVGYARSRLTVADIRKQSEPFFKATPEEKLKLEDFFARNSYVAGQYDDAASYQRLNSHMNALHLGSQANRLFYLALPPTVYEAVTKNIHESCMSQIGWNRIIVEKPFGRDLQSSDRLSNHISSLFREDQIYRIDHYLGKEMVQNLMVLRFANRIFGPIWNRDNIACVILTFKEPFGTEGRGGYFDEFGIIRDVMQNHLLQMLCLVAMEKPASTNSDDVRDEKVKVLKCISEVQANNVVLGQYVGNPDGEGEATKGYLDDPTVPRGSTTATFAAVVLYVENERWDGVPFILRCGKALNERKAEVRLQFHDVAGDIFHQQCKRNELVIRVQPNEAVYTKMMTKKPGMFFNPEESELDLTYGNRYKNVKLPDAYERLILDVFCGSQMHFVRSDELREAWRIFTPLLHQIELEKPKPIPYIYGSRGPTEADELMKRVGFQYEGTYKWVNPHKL
Test [10] deals with T4, Heat shock factor protein 1 (Mus musculus, UniProt P38532).
T4 sequence (P38532 whole entry): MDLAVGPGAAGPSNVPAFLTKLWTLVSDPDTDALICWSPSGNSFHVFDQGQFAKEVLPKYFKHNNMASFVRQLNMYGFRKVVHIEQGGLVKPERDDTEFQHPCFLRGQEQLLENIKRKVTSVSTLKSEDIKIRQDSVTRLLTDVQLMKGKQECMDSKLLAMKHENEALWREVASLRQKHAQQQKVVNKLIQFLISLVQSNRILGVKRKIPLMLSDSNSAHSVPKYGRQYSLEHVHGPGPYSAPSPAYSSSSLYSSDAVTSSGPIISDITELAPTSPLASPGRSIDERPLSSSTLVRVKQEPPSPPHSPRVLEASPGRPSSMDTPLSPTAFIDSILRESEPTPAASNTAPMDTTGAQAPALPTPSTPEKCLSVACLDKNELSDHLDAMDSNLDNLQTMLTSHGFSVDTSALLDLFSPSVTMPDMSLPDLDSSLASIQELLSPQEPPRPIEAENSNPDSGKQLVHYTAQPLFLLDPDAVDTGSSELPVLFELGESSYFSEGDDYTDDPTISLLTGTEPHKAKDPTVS
Description: decrease of HSF1-responsive luciferase luminescence – cell-based, NIH3T3, dose retest, confirmation (AID 2382).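 Further: NIH3T3 fibroblasts with HSF1-driven luciferase reporter stressed by proteasome inhibitor MG132; luminescence from HSF1-driven luciferase expression after 8 hours of MG132 stress.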 Type of test: functional.

Test [11] deals with Cytochrome P450 2C9 (Homo sapiens, UniProt P11712).
Sequence of Cytochrome P450 2C9 (P11712 whole entry): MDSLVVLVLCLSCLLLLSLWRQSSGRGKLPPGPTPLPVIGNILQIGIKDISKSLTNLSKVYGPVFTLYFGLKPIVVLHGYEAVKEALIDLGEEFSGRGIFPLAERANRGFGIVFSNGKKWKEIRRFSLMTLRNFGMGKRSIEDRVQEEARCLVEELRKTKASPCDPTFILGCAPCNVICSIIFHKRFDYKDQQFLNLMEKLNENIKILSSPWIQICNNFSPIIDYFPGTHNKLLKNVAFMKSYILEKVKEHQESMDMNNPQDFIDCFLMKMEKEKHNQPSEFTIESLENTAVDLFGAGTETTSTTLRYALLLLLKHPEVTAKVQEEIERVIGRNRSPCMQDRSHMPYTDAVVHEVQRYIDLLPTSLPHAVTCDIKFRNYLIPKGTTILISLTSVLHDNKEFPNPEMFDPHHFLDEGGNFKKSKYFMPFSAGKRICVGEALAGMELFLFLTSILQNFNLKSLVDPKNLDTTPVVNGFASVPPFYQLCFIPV
Test [12] has as its system Vero. The experiment in a line: cells. Type of test: functional. As to conditions: Chlorocebus sabaeus.
The target of test [13] is T5, Apoptotic protease-activating factor 1 (Homo sapiens, UniProt O14727).
T5 sequence (O14727 whole entry): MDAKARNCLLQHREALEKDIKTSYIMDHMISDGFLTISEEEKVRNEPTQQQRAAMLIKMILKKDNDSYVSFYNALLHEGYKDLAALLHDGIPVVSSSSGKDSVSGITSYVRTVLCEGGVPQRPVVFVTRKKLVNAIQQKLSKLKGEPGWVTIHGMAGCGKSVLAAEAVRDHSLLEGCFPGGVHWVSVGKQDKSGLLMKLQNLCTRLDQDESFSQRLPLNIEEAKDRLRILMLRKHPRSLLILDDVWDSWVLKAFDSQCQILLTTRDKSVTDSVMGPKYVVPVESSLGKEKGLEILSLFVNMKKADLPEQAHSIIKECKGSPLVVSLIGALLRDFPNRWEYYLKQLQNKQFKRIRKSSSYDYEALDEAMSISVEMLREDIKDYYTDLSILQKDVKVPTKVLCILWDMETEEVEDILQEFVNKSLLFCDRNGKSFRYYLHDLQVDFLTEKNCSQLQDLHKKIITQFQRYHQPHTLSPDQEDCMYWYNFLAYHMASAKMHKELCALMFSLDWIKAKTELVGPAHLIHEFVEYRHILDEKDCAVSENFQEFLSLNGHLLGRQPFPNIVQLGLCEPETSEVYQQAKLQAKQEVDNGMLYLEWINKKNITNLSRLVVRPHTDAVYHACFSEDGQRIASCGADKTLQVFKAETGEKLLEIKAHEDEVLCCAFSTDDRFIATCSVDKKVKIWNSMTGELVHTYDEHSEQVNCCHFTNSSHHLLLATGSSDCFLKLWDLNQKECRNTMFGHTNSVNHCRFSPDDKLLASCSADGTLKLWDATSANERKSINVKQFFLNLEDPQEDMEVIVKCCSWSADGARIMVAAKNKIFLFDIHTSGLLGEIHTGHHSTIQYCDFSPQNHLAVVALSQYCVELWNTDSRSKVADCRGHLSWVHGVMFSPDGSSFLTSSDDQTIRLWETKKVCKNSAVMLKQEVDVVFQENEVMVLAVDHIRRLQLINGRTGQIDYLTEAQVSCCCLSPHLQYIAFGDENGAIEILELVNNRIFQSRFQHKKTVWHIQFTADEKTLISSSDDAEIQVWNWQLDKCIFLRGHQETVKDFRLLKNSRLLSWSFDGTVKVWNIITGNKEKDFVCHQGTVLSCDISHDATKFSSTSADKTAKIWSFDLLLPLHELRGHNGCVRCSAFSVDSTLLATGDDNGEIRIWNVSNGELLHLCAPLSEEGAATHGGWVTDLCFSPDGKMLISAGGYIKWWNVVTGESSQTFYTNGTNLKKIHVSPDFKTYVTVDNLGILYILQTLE
Format: functional.

The target of test [14] is T6, Ubiquitin-conjugating enzyme E2 N (Homo sapiens, UniProt P61088).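 Further: Dose-response confirmation in a TR-FRET assay detecting UBC13-driven polyubiquitin chain formation, inhibition measured.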
T6 sequence (P61088 whole entry): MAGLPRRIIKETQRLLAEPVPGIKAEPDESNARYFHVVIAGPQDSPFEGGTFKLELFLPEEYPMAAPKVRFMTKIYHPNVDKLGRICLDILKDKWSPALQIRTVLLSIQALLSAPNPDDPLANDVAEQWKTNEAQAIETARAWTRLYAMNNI
Format: functional.

The nature of test [15]: Counterscreen for activators of the function of SWI/SNF related, matrix associated, actin dependent regulator of chromatin, subfamily a, member 2 (SMARCA2, BRM): Luminescence-based cell-based high throughput dose response assay to identify non-selective compounds using the VP16 reporter assay. Format: functional.
In test [16] the target is SWI/SNF-related matrix-associated actin-dependent regulator of chromatin subfamily A member 2 (Homo sapiens, UniProt P51531). The experiment in a line: Luminescence-based cell-based high throughput dose response assay to identify activators of the function of SWI/SNF related, matrix associated, actin dependent regulator of chromatin, subfamily a, member 2 (SMARCA2, BRM). Type of test: functional.
Sequence of SWI/SNF-related matrix-associated actin-dependent regulator of chromatin subfamily A member 2 (P51531 whole entry): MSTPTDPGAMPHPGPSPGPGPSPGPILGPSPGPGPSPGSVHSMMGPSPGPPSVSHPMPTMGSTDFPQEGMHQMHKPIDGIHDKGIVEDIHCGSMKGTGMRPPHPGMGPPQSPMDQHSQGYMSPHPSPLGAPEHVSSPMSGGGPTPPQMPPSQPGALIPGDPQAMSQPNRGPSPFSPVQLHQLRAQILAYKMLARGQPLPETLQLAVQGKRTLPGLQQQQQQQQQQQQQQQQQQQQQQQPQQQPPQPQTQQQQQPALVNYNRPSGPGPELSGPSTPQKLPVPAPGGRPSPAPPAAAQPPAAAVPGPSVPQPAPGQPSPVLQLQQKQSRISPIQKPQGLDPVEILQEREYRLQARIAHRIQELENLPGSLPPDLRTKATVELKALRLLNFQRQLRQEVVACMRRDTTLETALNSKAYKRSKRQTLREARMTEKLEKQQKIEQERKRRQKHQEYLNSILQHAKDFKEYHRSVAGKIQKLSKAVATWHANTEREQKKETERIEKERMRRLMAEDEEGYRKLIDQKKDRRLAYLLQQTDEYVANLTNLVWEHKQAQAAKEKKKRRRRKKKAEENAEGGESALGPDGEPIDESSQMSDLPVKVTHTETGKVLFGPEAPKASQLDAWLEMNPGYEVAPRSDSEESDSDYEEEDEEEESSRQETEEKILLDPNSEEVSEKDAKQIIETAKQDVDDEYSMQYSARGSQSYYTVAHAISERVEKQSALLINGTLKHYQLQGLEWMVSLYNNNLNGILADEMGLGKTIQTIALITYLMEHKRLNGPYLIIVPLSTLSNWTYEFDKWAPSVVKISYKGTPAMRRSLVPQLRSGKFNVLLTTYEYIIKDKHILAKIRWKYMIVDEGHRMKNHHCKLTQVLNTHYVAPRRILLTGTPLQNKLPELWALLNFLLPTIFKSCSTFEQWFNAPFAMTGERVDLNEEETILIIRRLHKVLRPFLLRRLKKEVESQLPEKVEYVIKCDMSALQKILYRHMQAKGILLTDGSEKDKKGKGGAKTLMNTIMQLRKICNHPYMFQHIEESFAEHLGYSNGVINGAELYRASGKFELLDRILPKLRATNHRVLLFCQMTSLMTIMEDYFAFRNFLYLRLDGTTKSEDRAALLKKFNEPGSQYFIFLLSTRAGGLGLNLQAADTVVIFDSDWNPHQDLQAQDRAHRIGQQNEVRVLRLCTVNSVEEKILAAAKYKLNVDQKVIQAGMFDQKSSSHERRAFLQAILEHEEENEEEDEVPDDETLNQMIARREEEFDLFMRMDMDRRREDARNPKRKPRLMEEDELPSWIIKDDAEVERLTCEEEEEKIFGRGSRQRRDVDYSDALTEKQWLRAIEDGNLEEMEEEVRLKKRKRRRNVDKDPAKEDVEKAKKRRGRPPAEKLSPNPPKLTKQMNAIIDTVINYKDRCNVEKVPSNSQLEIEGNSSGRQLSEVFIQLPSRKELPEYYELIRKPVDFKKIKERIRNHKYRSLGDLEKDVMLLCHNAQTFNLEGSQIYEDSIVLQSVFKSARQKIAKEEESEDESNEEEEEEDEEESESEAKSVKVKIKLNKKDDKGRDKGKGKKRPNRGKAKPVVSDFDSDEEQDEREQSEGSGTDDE

Test [17] concerns the target Heat shock protein HSP 90-alpha (Homo sapiens, UniProt P07900). Type of test: functional, organism-based.

Active and inactive are the calls of the source.

`COC(=O)CN1C(c2ccc(Cl)cc2)=Nc2ccc(Cl)cc2C1c1ccccc1` (stereo not given): the EC50 in [1] was 55.9 µM (inconclusive); in test [3] it was > 59.6 µM (inactive); in test [5], > 59.6 µM (inactive); in test [6], > 53 µM (inactive). The IC50 in [2] is > 47.1 µM (inactive). Moreover, the CC50 in [4] was > 40 µM (active). Besides, in [7], the AC50 was 4.24 µM (active).

For `O=C1CCCCC1Nc1ccc2ccccc2c1` (stereo not given), the IC50 in test [8] is > 12.5 µM (active).

Regarding `O=C(Nc1nnc(S(=O)(=O)N2CCCCCC2)s1)c1cccc(Br)c1`, the IC50 in test [9] was 78.9 µM (inactive). For the same molecule, the EC50 in [10] is listed as > 195 µM (not active).

For `O=C(Oc1ccc2ccccc2c1Br)N1CCCCCC1`, the AC50 in test [11] is 25.1 µM (inconclusive). For the same molecule, in [12], the CC50 was > 25 µM (active). Besides, the IC50 in [8] is 4.26 µM (active).

`COc1ccc(C(CNC(=O)COc2c(C)cc(C)cc2C)N2CCOCC2)cc1` (stereo not given): the IC50 in test [13] is > 100 µM (inactive); in test [14], > 20 µM (inactive).

Consider `O=C(CCCc1ccccc1)NCc1ccccc1`, for which the EC50 in [15] and in test [16] was > 91.3 µM (inactive) in each case.

Regarding `Cc1oc2c(c1C(=O)O)C(=O)c1ccccc1C2=O`, the IC50 in test [13] is 11.4 µM (active).

As for `CC(C)N1CCN(c2ccc(OC[C@H]3CO[C@](Cn4cncn4)(c4ccc(Cl)cc4Cl)O3)cc2)CC1` [TERCONAZOLE], the CC50 in test [12] was 22.1 µM (active). Further, the AC50 in [17] is 1.41 µM (active).

`O=C(Nc1nc(-c2cccc(Br)c2)cs1)Oc1ccccc1`: the EC50 in [15] and in test [16] was > 91.2 µM (inactive) each time.

Regarding `N#C/C(=C/c1cccs1)c1nc2ccccc2[nH]1`, the EC50 in [15] and in test [16] was > 91.1 µM (inactive) in each case.

For the molecule `Nc1c(C(=O)Nc2ccc(F)cc2)sc(=S)n1-c1ccccc1F`, in test [9], the IC50 was > 80 µM (inactive).
